The values that follow are results of earlier work, collected in patent US11840582B2, “Synthesis method of cyclosporine derivatives” (Peking University Shenzhen Graduate School, priority 2021, dated 2023).

Non-standard residues stand in square brackets, D forms with d. Residues, ends and D or L forms follow the SMILES beside them. NMeThr(4R-Me,4-(CH2)6NHAc) = CN[C@H](C(=O)O)[C@H](O)[C@H](C)CCCCCCNC(C)=O; NMeL = CN[C@@H](CC(C)C)C(=O)O; NMeV = CN[C@H](C(=O)O)C(C)C; dNMeA = CN[C@H](C)C(=O)O; Abu = CC[C@H](N)C(=O)O

In this series the test system is cyclophilin proteins (CyP), including cyclophilin protein A, cyclophilin protein B, cyclophilin protein H and cyclophilin protein G.

The IC50 is the concentration needed to halve the response being measured. For the compound `CC[C@@H]1NC(=O)[C@H]([C@H](O)[C@H](C)CCCCCCNC(C)=O)N(C)C(=O)[C@H](C(C)C)N(C)C(=O)[C@H](CC(C)C)N(C)C(=O)[C@H](CC(C)C)N(C)C(=O)[C@@H](C)NC(=O)[C@H](C)NC(=O)[C@H](CC(C)C)N(C)C(=O)[C@H](C(C)C)NC(=O)[C@H](CC(C)C)N(C)C(=O)[C@@H](C)N(C)C1=O` [CRV431] (cyclo(A[dA][NMeL][NMeL][NMeV][NMeThr(4R-Me,4-(CH2)6NHAc)][Abu][dNMeA][NMeL]V[NMeL])), the IC50 is 1 to 7 nM and the “potency relative to cyclosporine A inhibiting the activity of cyclophilin protein” value is given as at most 13 times.
